Reference: ChEMBL document CHEMBL1125726 (J Med Chem, 1991)

Assays:
D(2) dopamine receptor = D(2) dopamine receptor (Rattus norvegicus, UniProt P61169); test: biochemical
Description: Compound was evaluated for its ability to inhibit dopamine receptor D2 in rat striatum using [3H]-spiperone

D(1A) dopamine receptor = D(1A) dopamine receptor (Rattus norvegicus, UniProt P18901); test: biochemical
Sequence of D(1A) dopamine receptor (P18901 whole entry): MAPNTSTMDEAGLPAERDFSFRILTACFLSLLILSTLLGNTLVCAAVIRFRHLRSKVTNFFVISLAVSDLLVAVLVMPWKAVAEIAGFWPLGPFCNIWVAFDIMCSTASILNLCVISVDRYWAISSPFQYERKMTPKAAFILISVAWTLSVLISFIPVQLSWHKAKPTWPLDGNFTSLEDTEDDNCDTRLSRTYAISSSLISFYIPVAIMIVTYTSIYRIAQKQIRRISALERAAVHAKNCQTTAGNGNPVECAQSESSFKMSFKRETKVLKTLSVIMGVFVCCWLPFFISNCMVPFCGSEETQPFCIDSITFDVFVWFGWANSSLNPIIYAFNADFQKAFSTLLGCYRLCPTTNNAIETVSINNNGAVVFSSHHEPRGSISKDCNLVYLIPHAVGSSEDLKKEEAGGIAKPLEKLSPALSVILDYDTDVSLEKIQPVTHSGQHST
Description: Compound was evaluated for its ability to inhibit dopamine receptor D1 in rat striatum using [3H]SCH-23390

Sequence of D(2) dopamine receptor (P61169 whole entry): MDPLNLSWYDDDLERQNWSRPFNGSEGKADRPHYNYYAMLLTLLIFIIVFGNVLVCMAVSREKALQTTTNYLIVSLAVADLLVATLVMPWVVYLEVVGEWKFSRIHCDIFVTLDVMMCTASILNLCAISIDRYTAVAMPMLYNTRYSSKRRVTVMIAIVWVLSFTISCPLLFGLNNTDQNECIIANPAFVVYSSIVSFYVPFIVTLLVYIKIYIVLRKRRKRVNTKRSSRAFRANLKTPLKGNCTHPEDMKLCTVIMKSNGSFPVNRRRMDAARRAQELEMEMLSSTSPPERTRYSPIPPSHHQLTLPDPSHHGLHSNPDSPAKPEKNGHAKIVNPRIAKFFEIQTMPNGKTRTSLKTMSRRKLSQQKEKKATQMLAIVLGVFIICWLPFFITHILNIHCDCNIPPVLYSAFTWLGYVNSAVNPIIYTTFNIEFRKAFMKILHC

C=CCN1CCc2cccc3c2[C@@H]1Cc1cccc(O)c1-3
Ki (D(2) dopamine receptor): 155 nM
Ki (Dopamine receptor): 1595 nM
Ki (D(1A) dopamine receptor): > 10000 nM

C=CCN1CCc2cccc3c2[C@H]1Cc1cccc(O)c1-3
Ki (D(2) dopamine receptor): 2 nM
Ki (Dopamine receptor): 0.034 nM
Ki (D(1A) dopamine receptor): 452 nM
